Laboratory results taken from patent US9198433B2, “Substituted benzene fungicides” (E I DU PONT DE NEMOURS AND COMPANY, priority 2007, dated 2015).
Marks after values point to notes of the source that are not given here.

Assays:
Format in all cases: in vivo
Septoria nodorum = test: Test C: wheat glume blotch, preventive spray on wheat seedlings, disease rating
Description: (§1) The test compounds were first dissolved in acetone in an amount equal to 3% of the final volume and then suspended at the desired concentration (in ppm) in acetone and purified water (50/50 mix) containing 250 ppm of the surfactant Trem® 014 (polyhydric alcohol esters). The resulting test suspensions were then used in Tests A-L. Spraying a 200 ppm test suspension to the point of run-off on the test plants was the equivalent of an application rate of 500 g/ha. The test suspension was sprayed to the point of run-off on wheat seedlings. […] A dash (-) indicates no test results. All results are for 200 ppm except where followed by an “*”, which indicates 40 ppm or “**”, which indicates 50 ppm.

[1] = tested on: Puccinia recondita f. sp. tritici; test: Test B: wheat leaf rust, preventive spray on wheat seedlings, disease rating
Description: as §1

Alternaria solani = test: Test H: tomato early blight, preventive spray on tomato seedlings, disease rating
Description: (§2) The test compounds were first dissolved in acetone in an amount equal to 3% of the final volume and then suspended at the desired concentration (in ppm) in acetone and purified water (50/50 mix) containing 250 ppm of the surfactant Trem® 014 (polyhydric alcohol esters). The resulting test suspensions were then used in Tests A-L. Spraying a 200 ppm test suspension to the point of run-off on the test plants was the equivalent of an application rate of 500 g/ha. The test suspension was sprayed to the point of run-off on tomato seedlings. […] A dash (-) indicates no test results. All results are for 200 ppm except where followed by an “*”, which indicates 40 ppm or “**”, which indicates 50 ppm.

[2] = tested on: Erysiphe graminis f. sp. tritici; test: Test A: wheat powdery mildew, preventive spray on wheat seedlings, disease rating
Description: as §1

Septoria tritici = test: Test D: wheat leaf blotch, preventive spray on wheat seedlings, disease rating
Description: The test compounds were first dissolved in acetone in an amount equal to 3% of the final volume and then suspended at the desired concentration (in ppm) in acetone and purified water (50/50 mix) containing 250 ppm of the surfactant Trem® 014 (polyhydric alcohol esters). The resulting test suspensions were then used in Tests A-L. Spraying a 200 ppm test suspension to the point of run-off on the test plants was the equivalent of an application rate of 500 g/ha. The test suspension was sprayed to the point of run-off on wheat seedlings. The following day the seedlings were inoculated with a spore suspension of Septoria tritici (the causal agent of wheat leaf blotch) and incubated in a saturated atmosphere at 24° C. for 48 h, and then moved to a growth chamber at 20° C. for 19 days, after which time disease ratings were made. […] A dash (-) indicates no test results. All results are for 200 ppm except where followed by an “*”, which indicates 40 ppm or “**”, which indicates 50 ppm.

Botrytis cinerea = test: Test F: tomato Botrytis, preventive spray on tomato seedlings, disease rating
Description: as §2

[3] = 200 ppm, 100 = 100% disease control, 0 = no control relative to controls
[4] = 40 ppm (*), 100 = 100% disease control, 0 = no control relative to controls

Compound	Percentage Disease Control, Test C (Septoria nodorum; 40 ppm (*))	Percentage Disease Control, Test B ([1]; 40 ppm (*))	Percentage Disease Control, Test H (Alternaria solani; 40 ppm (*))	Percentage Disease Control, Test A ([2]; 40 ppm (*))	Percentage Disease Control, Test D (Septoria tritici; 40 ppm (*))	Percentage Disease Control, Test F (Botrytis cinerea; 200 ppm)	further results
COC(=O)NCc1cc(-c2ccn(-c3ccc(C)cc3)n2)ccc1Cl [Cmpd 109]	100* %	100* %	100* %	98* %	99* %	–	Percentage Disease Control, Test F (Botrytis cinerea; 40 ppm (*)): 92* %
COC(=O)NCc1cc(-c2ccn(Cc3cc(C(F)(F)F)ccc3Cl)n2)ccc1Cl [Cmpd 53]	94* %	99* %	92* %	98* %	99* %	–	Percentage Disease Control, Test F (Botrytis cinerea; 40 ppm (*)): 0* %
COC(=O)NCc1cc(-c2cn(Cc3ccc(C)cc3)nn2)ccc1Cl [Cmpd 149]	–	–	–	–	–	–	Percentage Disease Control, Test C (Septoria nodorum; [3]): 100%; Percentage Disease Control, Test B [1, 3]: 99%; Percentage Disease Control, Test H (Alternaria solani; [3]): 0%; Percentage Disease Control, Test A [2, 3]: 0%; Percentage Disease Control, Test D (Septoria tritici; [3]): 99%; Percentage Disease Control, Test F (Botrytis cinerea; [3]): 0%
COC(=O)NCc1cc(-c2ccn(-c3nc(C)ns3)n2)ccc1Cl [Cmpd 105]	100* %	100* %	90* %	–	99* %	0%	Percentage Disease Control, Test A ([2]; 200 ppm): 51%
COC(=O)NCc1cc(-c2ccn(Cc3ccc(-c4ccccc4C#N)cc3)n2)ccc1Cl [Cmpd 55]	92* %	88* %	16* %	88* %	95* %	–	Percentage Disease Control, Test F (Botrytis cinerea; 40 ppm (*)): 0* %
COC(=O)NCc1cc(-c2ccn(-c3cccc(C#N)c3)n2)ccc1Cl [Cmpd 113]	–	–	–	–	–	24%	Percentage Disease Control, Test C (Septoria nodorum; 200 ppm): 100%; Percentage Disease Control, Test B ([1]; 200 ppm): 99%; Percentage Disease Control, Test H (Alternaria solani; 200 ppm): 0%; Percentage Disease Control, Test A ([2]; 200 ppm): 92%; Percentage Disease Control, Test D (Septoria tritici; 200 ppm): 100%
COC(=O)NCc1cc(-c2cnn(-c3ccc(Cl)cc3)n2)ccc1Cl [Compound 147]	–	–	–	–	–	–	Percentage Disease Control, Test C (Septoria nodorum; [4]): 99* %; Percentage Disease Control, Test B [1, 4]: 99* %; Percentage Disease Control, Test H (Alternaria solani; [3]): 15%; Percentage Disease Control, Test A [2, 4]: 100* %; Percentage Disease Control, Test D (Septoria tritici; [4]): 100* %; Percentage Disease Control, Test F (Botrytis cinerea; [3]): 61%
COC(=O)NCc1cc(-c2cn(-c3ccc(Cl)cc3)nn2)ccc1Cl [Cmpd 148]	–	–	–	–	–	–	Percentage Disease Control, Test C (Septoria nodorum; [3]): 90%; Percentage Disease Control, Test B [1, 4]: 90* %; Percentage Disease Control, Test H (Alternaria solani; [3]): 0%; Percentage Disease Control, Test A [2, 3]: 85%; Percentage Disease Control, Test D (Septoria tritici; [4]): 98* %; Percentage Disease Control, Test F (Botrytis cinerea; [3]): 46%
COC(=O)NCc1cc(-c2cn[nH]c2)ccc1Cl [Cmpd 127]	–	–	–	–	–	–	Percentage Disease Control, Test C (Septoria nodorum; [3]): 0%; Percentage Disease Control, Test B [1, 3]: 9%; Percentage Disease Control, Test H (Alternaria solani; [3]): 0%; Percentage Disease Control, Test A [2, 3]: 0%; Percentage Disease Control, Test D (Septoria tritici; [3]): 53%; Percentage Disease Control, Test F (Botrytis cinerea; [3]): 0%
COC(=O)NCc1cc(-c2ncn(-c3cccc(C(F)(F)F)c3)n2)ccc1Cl [Cmpd 89]	100* %	100* %	89* %	100* %	100* %	0%	–
COC(=O)NCc1cc(-c2ccn(-c3cccc(F)c3)n2)ccc1Cl [Cmpd 115]	–	–	–	–	–	32%	Percentage Disease Control, Test C (Septoria nodorum; 200 ppm): 100%; Percentage Disease Control, Test B ([1]; 200 ppm): 99%; Percentage Disease Control, Test H (Alternaria solani; 200 ppm): 96%; Percentage Disease Control, Test A ([2]; 200 ppm): 98%; Percentage Disease Control, Test D (Septoria tritici; 200 ppm): 100%
COC(=O)NCc1cc(-c2ccn(CC(C)Oc3ccccc3)n2)ccc1Cl (racemic) [Cmpd 61]	99* %	100* %	0* %	84* %	99* %	–	Percentage Disease Control, Test F (Botrytis cinerea; 40 ppm (*)): 0* %
COC(=O)NCc1cc(-c2cnn(Cc3ccccc3)c2)ccc1Cl [Cmpd 128]	–	–	–	–	–	–	Percentage Disease Control, Test C (Septoria nodorum; [3]): 82%; Percentage Disease Control, Test B [1, 3]: 98%; Percentage Disease Control, Test H (Alternaria solani; [3]): 0%; Percentage Disease Control, Test A [2, 3]: 29%; Percentage Disease Control, Test D (Septoria tritici; [4]): 96* %; Percentage Disease Control, Test F (Botrytis cinerea; [3]): 0%
COC(=O)NCc1cc(-c2ccn(-c3nc(C(C)C)ns3)n2)ccc1Cl [Cmpd 104]	100* %	100* %	–	100* %	100* %	0%	Percentage Disease Control, Test H (Alternaria solani; 200 ppm): 40%
COC(=O)NCc1cc(C(C)=NOC[Si](C)(C)c2ccccc2)ccc1Cl [Compound 15]	100* %	100* %	–	100* %	100* %	0%	Percentage Disease Control, Test H (Alternaria solani; 200 ppm): 33%
COC(=O)NCc1cc(-c2ncn(-c3ccc(Br)cc3)n2)ccc1Cl [Cmpd 97]	100* %	100* %	–	98* %	100* %	0%	Percentage Disease Control, Test H (Alternaria solani; 200 ppm): 85%
COC(=O)NCc1cc(-n2cnc(-c3cccc(C(F)(F)F)c3)n2)ccc1Cl [Cmpd 120]	–	–	–	98* %	94* %	0%	Percentage Disease Control, Test C (Septoria nodorum; 200 ppm): 0%; Percentage Disease Control, Test B ([1]; 200 ppm): 79%; Percentage Disease Control, Test H (Alternaria solani; 200 ppm): 0%
CCCCCc1cc(-c2ccc(Cl)c(CNC(=O)OC)c2)nn1C [Cmpd 98]	90* %	98* %	–	–	–	0%	Percentage Disease Control, Test H (Alternaria solani; 200 ppm): 0%; Percentage Disease Control, Test A ([2]; 200 ppm): 91%; Percentage Disease Control, Test D (Septoria tritici; 200 ppm): 98%
COC(=O)NCc1cc(-c2ccn(-c3ccccc3C(C)=O)n2)ccc1Cl [Cmpd 54]	99* %	100* %	–	99* %	99* %	–	Percentage Disease Control, Test F (Botrytis cinerea; 40 ppm (*)): 0* %
COC(=O)NCc1cc(-c2ccn(-c3ccc(-c4ccccc4)cc3)n2)ccc1Cl [Cmpd 82]	86* %	0* %	7* %	60* %	–	–	Percentage Disease Control, Test F (Botrytis cinerea; 40 ppm (*)): 0* %
COC(=O)NCc1cc(-c2ccn(-c3ccc(OC(F)(F)F)cc3)n2)ccc1Cl [Cmpd 77]	100* %	100* %	96* %	99* %	100* %	–	–
CCCn1nc(-c2ccc(Cl)c(CNC(=O)OC)c2)cc1C(F)(F)F [Cmpd 103]	–	98* %	–	99* %	99* %	0%	Percentage Disease Control, Test C (Septoria nodorum; 200 ppm): 87%
COC(=O)NCc1cc(-c2ccn(Cc3cccc(C)c3)n2)ccc1Cl [Cmpd 71]	100* %	100* %	84* %	99* %	100* %	–	–
COC(=O)NCc1cc(-c2ccn(-c3ccc(C(F)(F)F)cc3)n2)ccc1Cl [Cmpd 79]	100* %	99* %	–	99* %	99* %	–	Percentage Disease Control, Test F (Botrytis cinerea; 40 ppm (*)): 0* %
COC(=O)NCc1cc(-c2ccn(Cc3ccccc3C)n2)ccc1Cl [Cmpd 70]	100* %	99* %	96* %	99* %	100* %	–	–
CCCCn1nc(-c2ccc(Cl)c(CNC(=O)OC)c2)cc1C(F)(F)F [Cmpd 102]	96* %	98* %	–	98* %	98* %	0%	–
